Our source for the IC50 values is patent US9682961B2, “Quinazoline derivative” (CARNA BIOSCIENCES, INC., priority 2013, dated 2017).

Where only a bound is given, the exact number is not on record here.

The assay relates to Wnt/β-catenin signaling pathway. Put plainly: TCF-luciferase reporter gene assay (Wnt-3a stimulated HEK 293 cells). It counts as cell-based. The following applies: Homo sapiens, HEK293, Wnt-3a stimulation, read-out: Inhibitory activity against the Wnt/β-catenin signaling pathway. As to the method:
Evaluation of inhibitory activity of the compounds of the present invention against the Wnt/β-catenin signaling pathway was performed by evaluating the inhibitory activity of the compounds of the present invention against the Wnt/β-catenin signaling pathway activated by the Wnt-3a ligand using a commercially available TCF-luciferase reporter gene assay system.
In a T75 flask, HEK 293 cells (ATCC No. CRL-1573) were added to a DMEM medium (manufactured by NACALAI TESQUE, INC., No. 08459-35) supplemented with 10% FBS (AusGeneX PTY LTD.) and 1% Penicillin/Streptomycin (NACALAI TESQUE, INC.). The cells in the flask were cultured in a 5% CO2 incubator.
The cultured HEK 293 cells were diluted with a DMEM medium supplemented with only 10% FBS so as to have a cell concentration of 2×10^5 cells/mL, and 100 μL each of the diluted cells were seeded into respective wells of 96-well plates (PerkinElmer Inc., ViewPlate No. 6005181), followed by culturing overnight in the 5% CO2 incubator. To an OptiMEM medium (Invitrogen® No. 11058), pGL4.49 [luc2p/TCF-LEF-RE/Hygro] plasmid DNA (Promega Corporation) and FuGENE® HD (Promega No. E2691) were added so as to have concentrations of 1 μg/mL and 3 μg/mL, respectively, to prepare a transfection solution as described in the protocol attached to the reagent. To the respective wells containing the HEK 293 cells cultured overnight, 100 μL each of the transfection solution was added gently, followed by culturing overnight in the 5% CO2 incubator to perform transfection.
To a DMEM medium, 0.5% charcoal/dextran treated Fetal Bovine Serum (Thermo Scientific No. SH30068.02) and LiCl (Sigma-Aldrich No. L9650) were added to prepare a LiCl-containing medium (final concentration of LiCl: 10 mM). The medium in the respective wells of the HEK 293 cells cultured overnight and transfected with a reporter gene was removed by decantation. The LiCl-containing medium (90 μL) was added gently to each well, followed by culturing overnight in the 5% CO2 incubator.
A DMSO stock solution of the compound to be tested was diluted 100-fold with a LiCl-containing medium so as to prepare a solution of the compound to be tested, which is 10 times the test concentration. Further, Recombinant Mouse Wnt-3a (R&D Systems, Inc. #1324-WN) was dissolved in a 0.1% BSA-PBA solution so as to have a concentration of 40 μg/mL, and the resultant solution was diluted with a LiCl-containing medium so as to have a concentration of 100 ng/mL, to prepare a Wnt-3a solution. To each well of the HEK 293 cells cultured overnight in the LiCl-containing medium, 10 μL each of the solution of the compound to be tested was added, followed by culturing in the 5% CO2 incubator for 2 hours (the final concentration of the compound to be tested: 3-0.03 μM). Thereafter, 10 μL each of the Wnt-3a solution was added to the respective wells, followed by further culturing for 5 hours.
Using ONE-Glo™ Luciferase Assay System (Promega Corporation, No. E6110), the luciferase activity of the cells in the wells was measured by a microplate reader (Synergy H1, BioTek Instruments, Inc.) An IC50 value was calculated from the luminescence intensity of each compound concentration, supposing that the luminescence intensity of a group with no addition of the compound and with Wnt-3a stimulation was 100%, and that the luminescence intensity of a group with no addition of the compound and with no Wnt-3a stimulation was 0%.
(In general: In a reporter assay the amount or activity of a reporter protein is the signal.)

Consider `O[C@H]1CC[C@@H](Oc2cccc3cnc(Nc4ccc5nc[nH]c5c4)nc23)CC1` [Example 1, cis-4-({2-[(1H-benzo[d]imidazol-6-yl)amino]quinazolyn-8-yl}oxy)cyclohexanol], for which the IC50 is below 0.3 µM.
